This is an account of results in patent US20240391882A1 (Mirati Therapeutics, Inc., priority 2023, published 2024).

pIC50: −log10 of the molar value.

This experiment relates to T47D (PI3Kα H1047R mutant) cells. In words: Cell viability (CellTiter-Glo 2.0) in T47D cells. In kind it is cell-based. The settings on record: Homo sapiens, T47D, 72 h, approximately 72 hours. The procedure:
This Example illustrates that representative compounds of the invention decrease the viability of cells.
The ability of a compound of Formula (I) to decrease the viability of cells was measured using CellTiter-Glo 2.0 (CTG) Luminescent Cell Viability Assay (#G9241) obtained from Promega (Madison, WI).
To prepare assay plates for viability assays, cells were trypsinized, resuspended in fresh media, and viable cells were counted utilizing trypan blue exclusion. T47D, SKBR3, or MKN1 cells were seeded at 1000 cells in 30 μl per well in a solid white flat bottom 384 cell culture plate (Perkin Elmer #6007680) and incubated at 37° C. overnight.
Assay day 1, cells were dosed using an Echo Liquid Handler (Beckman Coulter) with compounds at a 10 μm starting concentration and serially diluted (1:4) for a total of 10 concentrations. Cells were incubated for approximately 72 hours with the compounds (solubilized in DMSO) at 37° C. After 72 hours of treatment, cell plates were equilibrated to room temperature before adding 15 μl of CTG to each well, plates were then covered in aluminum foil to protect from light, incubated at room temperature for 30 minutes on a microtiter plate shaker, and luminescence readings were collected using a CLARIOstar microplate reader (BMG Labtech, Germany). Percent of vehicle control values were plotted as log(inhibitor) vs. response—Variable slope (four parameters) for curve fitting and IC50 values were determined using XLfit.
For orientation: Cellular ATP, detected with luciferase, serves as a proxy for viable cell number.
`Cc1cc([C@@H](C)Nc2ccc(Cl)nc2C(=O)O)c2nc(N3CCC(F)(F)[C@H]3C)c(C#N)nc2c1` (single isomer, unassigned) [Example 170] showed a pIC50 of 7.03.
The same measure for `Cc1cc([C@@H](C)Nc2cscc2C(=O)O)c2nc(N3CCC(F)(F)CC3)c(C#N)nc2c1` [Example 121, (R)-4-((1-(2-cyano-3-(4,4-difluoropiperidin-1-yl)-7-methylquinoxalin-5-yl)ethyl)amino)thiophene-3-carboxylic acid]: 6.19.
Turning to `CO[C@@H]1CN(c2nc3c([C@@H](C)Nc4ccc(Cl)nc4C(=O)O)cc(C)cc3nc2C#N)CC1(F)F` (single isomer, unassigned) [Example 172], the pIC50 is 6.77.
For the compound `CO[C@H]1CN(c2nc3c([C@@H](C)Nc4ccc(Cl)nc4C(=O)O)cc(C)cc3nc2C#N)CC1(F)F` (single isomer, unassigned) [Example 171], the pIC50 is 6.75.
In the case of `Cc1cc([C@@H](C)Nc2ccc(Cl)nc2C(=O)O)c2nc(N3CCO[C@H](C)C3)c(C#N)nc2c1` [Example 168, 6-chloro-3-(((R)-1-(2-cyano-7-methyl-3-((R)-2-methylmorpholino)quinoxalin-5-yl)ethyl)amino)picolinic acid] it was 7.34; in that of `Cc1cc([C@@H](C)Nc2ccc(Cl)nc2C(=O)O)c2nc(N3CC4(CCO4)C3)c(C#N)nc2c1` [Example 130, (R)-6-chloro-3-((1-(2-cyano-7-methyl-3-(1-oxa-6-azaspiro[3.3]heptan-6-yl)quinoxalin-5-yl)ethyl)amino)picolinic acid], 7.18.
In the case of `Cc1cc([C@@H](C)Nc2cccnc2C(=O)O)c2nc(N3CCC(F)(F)CC3)c(C#N)nc2c1` [Example 118, (R)-3-((1-(2-cyano-3-(4,4-difluoropiperidin-1-yl)-7-methylquinoxalin-5-yl)ethyl)amino)picolinic acid] it was 6.42; in that of `CCOCC1CCN(c2nc3c([C@@H](C)Nc4ccc(Cl)nc4C(=O)O)cc(C)cc3nc2C#N)CC1` [Example 119, (R)-6-chloro-3-((1-(2-cyano-3-(4-(ethoxymethyl)piperidin-1-yl)-7-methylquinoxalin-5-yl)ethyl)amino)picolinic acid], 7.22; in that of `Cc1cc([C@@H](C)Nc2ccc(Cl)nc2C(=O)O)c2nc(N3CC[C@H](S(C)(=O)=O)C3)c(C#N)nc2c1` [Example 175, 6-chloro-3-(((R)-1-(2-cyano-7-methyl-3-((S)-3-(methylsulfonyl)pyrrolidin-1-yl)quinoxalin-5-yl)ethyl)amino)picolinic acid], 6.46.
Turning to `Cc1cc([C@@H](C)Nc2ccc(Cl)nc2C(=O)O)c2nc(N3CCC(F)(F)[C@@H]3C)c(C#N)nc2c1` (single isomer, unassigned) [Example 169], the pIC50 is 6.96.

The pIC50 is −log10 of the IC50, conventionally taken in molar units. Low readings indicate a high IC50, high ones a low IC50.
